# According to paper PMC5017749, “Preclinical Metabolism, Pharmacokinetics and In Vivo Analysis of New Blood-Brain-Barrier Penetrant Fingolimod Analogues: FTY720-C2 and FTY720-Mitoxy” (PLoS ONE, 2016):
# Key:
# [1] = Metabolic stability (intrinsic clearance) in rat liver microsomes; type: in vitro ADME, rat (Sprague-Dawley); conditions: for microsomal CLint at 1 μM: Sprague-Dawley, pH 7.4, 0.1 mg/mL protein, mean of two determinations; for microsomal CLint at 1 μM / intrinsic clearance interpreted in words / percent of the remaining compound: rat liver microsomes; for percent of the remaining compound: after 60 minute incubation; for Clint in rat liver microsomes relative to human liver microsomes: rat vs human liver microsomes
# Protocol: (§1) Liver microsomal incubations contained 0.1mg/mL microsomal proteins and 1 μM of FTY720-C2 or FTY720-Mitoxy in 100 mM potassium phosphate buffer (pH 7.4) ± an NADPH regenerating system (3.5 mM glucose 6-phosphate, 1.3 mM NADP^+, and 0.4 units/mL glucose-6-phosphate dehydrogenase). Following incubations, reactions were terminated for analysis after 0, 10, 20, 30, and 60 min by the addition of acetonitrile containing C17 sphingosine (300 ng/mL) as the internal standard. Samples were vigorously mixed and centrifuged at 3,400 rpm for 10 min to pellet precipitated proteins. An aliquot of each supernatant was used for LC/MS analysis, for determination of the remaining FTY720-C2 and FTY720-Mitoxy. Similar incubations were performed using a cocktail solution containing 0.2 μM midazolam and 1 μM diclofenac to determine the metabolic activity of the microsomes as an additional control.
# (§2) Samples resulting from liver microsomal incubations were analyzed by LC-MS/MS. Aliquots of the supernatants were injected onto an X-Bridge C18 column (2.1 × 50 mm, 3.5-μm particles) (Waters, Milford, MA), preceded by a SecurityGuard C18 guard column (4.0 × 2.0 mm; Phenomenex Inc.). Separations were accomplished with a gradient of 0.1% acetic acid in water (v/v) versus 0.1% acetic acid in acetonitrile: methanol (75:25, v/v) at a rate of 0.8 mL/min. The eluents were further applied into an equipped API 4000 QTrap mass spectrometer (AB Sciex, Foster City, CA) with electrospray ionization (ESI) interface by two coupled LC-10 AT pumps. Peak area ratios of FTY720-C2 or FTY720-Mitoxy against the C17 sphingosine internal standard were used to determine the amount of parent remaining compared to that at 0 min. The percent of FTY720-C2 or FTY720-Mitoxy remaining was calculated by dividing the peak area ratio obtained at each time point by that obtained at 0 min. The in vitro intrinsic clearance (CLint) was calculated by linear regression of the log percent of compound remaining versus time plots using Microsoft Excel, two independent experiments (n = 2) were performed for each compound and species. Then, the mean and standard deviation (SD), of two values for each condition, were calculated using Microsoft Excel with the “AVERAGE” and “STDEV” functions, respectively.
# [2] = Metabolic stability (intrinsic clearance) in monkey liver microsomes; type: in vitro ADME, monkey (Cynomolgus); conditions: for percent of the remaining compound: after 60 minute incubation
# Protocol: as §1, §2
# [3] = Metabolite profiling and identification in human hepatocytes; type: in vitro ADME; design: key to Source (peak identified in human hepatocytes): R = Rat; hr = Human; lowercase letter indicates low abundance; h: lowercase letter indicates low abundance; conditions: for phosphorylated metabolites / parent peak after 2 hr incubation: human hepatocytes; for parent peak after 2 hr incubation: 1 μM
# Protocol: (§3) Cryopreserved hepatocytes were grown in culture and incubations were performed to generate samples to measure the formation of FTY720-C2 and FTY720-Mitoxy metabolites. Incubations of 1 mL medium containing 1 million cells and 1 μM of FTY720-C2 and FTY720-Mitoxy were conducted at 37° C in a 5% CO2 incubator for 0, 1 and 2 hr, with gentle shaking. Positive control incubations used a cocktail solution containing 10 μM testosterone and 10 μM diclofenac performed for 0, 1 and 2 hr, under similar conditions to confirm the metabolic activity of the hepatocytes. The reactions were terminated by adding 2 mL acetonitrile containing 0.02% formic acid, and thoroughly mixing with gentle vortexing. Samples were transferred into 6 mL vials and stored in the freezer (-70°C) overnight for protein precipitation. Following overnight precipitations, samples were centrifuged at 3,000 rpm for 10 min to pellet proteins. Supernatants were transferred into clean 6 mL vials and evaporated to dryness using a TurboVap concentrator system. Samples were reconstituted using 600 μL 20% acetonitrile in water, briefly vortexed to resuspend, then aliquoted for LC-MS/MS analysis. Controls incubations also included “No drug control” and “no cell control” samples treated in a similar manner as test article samples.
# (§4) Metabolite profiling and identification experiments were conducted by LC-MS/MS, composed of an HPLC system consisting of an Agilent Technologies 1200 Series Model G1322A Degasser, Agilent Technologies 1200 Series Model G1312A Binary Pump, Shimadzu HTc autosampler, and Valco Model E60 Flow Diversion Valve, and coupled to an API 4000 mass spectrometer. Separations were accomplished on a Gemini C18 column (150 × 2.0 mm, 5-μm particles; Phenomenex Inc., Torrance, CA), preceded by a SecurityGuard C18 guard column (4.0 × 2.0 mm; Phenomenex Inc.). A two-component mobile phase, consisted of a linear gradient of water containing 0.5% formic acid (v/v) and methanol:acetonitrile (1:1, v/v) containing 0.5% formic acid (v/v), was pumped at 0.3 mL/min. The first 4 min of flow was diverted away from the mass spectrometer. Analysis of the positive control samples was conducted with an HPLC system consisting of two Shimadzu LC-10ATvp pumps and a LEAP Pal autosampler. Separations were accomplished on a Luna C8(2) column (50 × 2.0 mm, 3-μm particles; Phenomenex Inc., Torrance, CA), preceded by a SecurityGuard C18 column (4.0 × 2.0 mm; Phenomenex Inc.). Separation was accomplished with a gradient of water containing 0.2% formic acid and 0.012% NH4OH (v/v) versus acetonitrile at an initial rate of 0.7 mL/min. An API 4000 QTrap mass spectrometer (AB Sciex, Foster City, CA) was used for analysis of positive control samples. Each mass spectrometer used was equipped with an electrospray ionization source and operated in the positive ionization mode. Metabolite identification experiments were performed by recording full scan mass spectral data (Q1MS) for all samples, and selected samples were analyzed to obtain product ion spectra (MS/MS) of test article metabolites identified in the full scan mass spectral data.
# [4] = Metabolic stability (intrinsic clearance) in human liver microsomes; type: in vitro ADME; conditions: for percent of the remaining compound: after 60 minute incubation; for microsomal CLint at 1 μM: pH 7.4, 0.1 mg/mL protein, mean of two determinations
# Protocol: as §1, §2
# [5] = Metabolic stability (intrinsic clearance) in dog liver microsomes; type: in vitro ADME, dog (Beagle); conditions: for microsomal CLint at 1 μM: Beagle; for percent of the remaining compound: after 60 minute incubation
# Protocol: as §1, §2
# [6] = Metabolic stability (intrinsic clearance) in mouse liver microsomes; type: in vitro ADME, mouse (CD-1); conditions: for percent of the remaining compound: after 60 minute incubation
# Protocol: as §1, §2
# [7] = Metabolite profiling and identification in rat hepatocytes; type: in vitro ADME, rat (Sprague Dawley); design: key to Source (peak identified in rat hepatocytes): R = Rat; hr = Human; lowercase letter indicates low abundance; h: lowercase letter indicates low abundance; conditions: for phosphorylated metabolites / parent peak after 2 hr incubation: rat hepatocytes; for parent peak after 2 hr incubation: 1 μM
# Protocol: as §3, §4
# [8] = FTY720-Mitoxy incubation, Table 5
Structure (SMILES),microsomal CLint at 1 μM [1],intrinsic clearance interpreted in words [1],percent of the remaining compound [1],Clint in rat liver microsomes relative to human liver microsomes [1],intrinsic clearance interpreted in words ([2]; monkey liver microsomes),percent of the remaining compound ([2]; monkey liver microsomes),phosphorylated metabolites [3],parent peak after 2 hr incubation [3],intrinsic clearance interpreted in words [4],percent of the remaining compound [4],microsomal CLint at 1 μM [4],intrinsic clearance interpreted in words ([5]; dog liver microsomes),percent of the remaining compound ([5]; dog liver microsomes),intrinsic clearance interpreted in words ([6]; mouse liver microsomes),percent of the remaining compound ([6]; mouse liver microsomes),phosphorylated metabolites [7],parent peak after 2 hr incubation [7],also measured
"CCCCCCCCc1ccc(CCC(CO)(CO)NC(=O)CC[P+](c2ccccc2)(c2ccccc2)c2ccccc2)cc1 [FTY720-Mitoxy, N-(1-hydroxy-2-(hydroxymethyl)-4-(4-octylphenyl)butan-2-yl)-3’-triphenylphosphoniumpropanamide]",7.8 ± 1.98 µL/min/mg,low,65.5 ± 4.9%,around half,high,1.4 ± 0.3%,never detected,most FTY720-Mitoxy was still unchanged,moderate,35.5 ± 2.3%,17.5 ± 1.7 µL/min/mg,low,112.5 ± 5.0%,low,82.5 ± 16.3%,never detected,most FTY720-Mitoxy was still unchanged,"Clint (intrinsic clearance) ([2]; monkey liver microsomes, 0.1 mg/mL protein, 1 μM, mean of two determinations): 135.3 ± 10.61 µL/min/mg; microsomal CLint at 1 μM ([2]; monkey, liver microsomes, pH 7.4, monkey liver microsomes, 0.1 mg/mL protein, 1 μM, mean of two determinations): 135 µL/min/mg; Source (peak identified in human hepatocytes) [3, 8]: H; microsomal CLint at 1 μM ([5]; dog, liver microsomes, pH 7.4, dog liver microsomes, 0.1 mg/mL protein, 1 μM, mean of two determinations): 1.4 µL/min/mg; Clint (intrinsic clearance) ([5]; dog liver microsomes, 0.1 mg/mL protein, 1 μM, mean of two determinations): 1.35 ± 1.48 µL/min/mg; microsomal CLint at 1 μM ([6]; CD-1, mouse, liver microsomes, pH 7.4, mouse liver microsomes, 0.1 mg/mL protein, 1 μM, mean of two determinations): 1.8 µL/min/mg; Clint (intrinsic clearance) ([6]; mouse liver microsomes, 0.1 mg/mL protein, 1 μM, mean of two determinations): 1.75 ± 1.34 µL/min/mg; Source (peak identified in rat hepatocytes) [7, 8]: R"
"CCCCCCCCc1ccc(CCC(CO)(CO)NC(C)=O)cc1 [FTY720-C2, N-(1-hydroxy-2-(hydroxymethyl)-4-(4-octylphenyl)butan-2-yl)acetamide]",79.5 ± 1.41 µL/min/mg,high,1.0 ± 0%,~ 4 fold,moderate,30.0 ± 0.3%,never detected,more gradual,moderate,33.5 ± 4.5%,18.3 ± 2.4 µL/min/mg,low,69.9 ± 0.6%,moderate,29.5 ± 2.1%,never detected,drastically diminished,"microsomal CLint at 1 μM ([2]; pH 7.4, monkey liver microsomes, 0.1 mg/mL protein, 1 μM, mean of two determinations): 20.2 µL/min/mg; Source (peak identified in human hepatocytes) ([3]; FTY720-C2 incubation, Table 4): H; microsomal CLint at 1 μM ([5]; pH 7.4, dog liver microsomes, 0.1 mg/mL protein, 1 μM, mean of two determinations): 6 ± 0.28 µL/min/mg; microsomal CLint at 1 μM ([6]; CD-1, pH 7.4, mouse liver microsomes, 0.1 mg/mL protein, 1 μM, mean of two determinations): 22.5 ± 2.12 µL/min/mg; Source (peak identified in rat hepatocytes) ([7]; FTY720-C2 incubation, Table 4): R"
